Several values for one entry are separate records, joined by “and”; a condition that tells them apart may be missing. Equal entries are not always repeated.
Tested on: Huh-7 cells
Experiment: Metabolic disposition of [^14C]-Compound 1 and [^14C]-2′-C-methyl guanosine in Huh-7 cells (incubation medium, cellular extracts, nucleotide levels)
Assay type: in vitro ADME, human
Conditions: for AUC (area under the concentration-time curve) of Compound 7 levels / 2′-C-methyl guanosine nucleotide levels in cellular extracts / Major metabolites observed in cellular extracts (% of total radioactivity): Huh7; for AUC (area under the concentration-time curve) of Compound 7 levels: 0-72 h
Procedure: Huh-7 cells: Confluent monolayers of Huh-7 cells were dispersed using trypsin-EDTA, rinsed and pelleted by centrifugation at 1,000 rpm (Beckman, Model Allegra 6R). Cells were resuspended at 0.2, 0.3 and 0.4×10^6 cells/mL of medium (DMEM supplemented with 1% pyruvate, 10% FBS, 0.5% penicillin-streptomycin, 1% L-glutamine, 1% non-essential amino acids and 22 mM HEPES). Multi-well collagen I-coated plates (rat tail collagen type I; 6-well) were then seeded by addition of 2.0 mL of cell suspension to achieve final cell density of 0.4, 0.6 and 0.8×10^6 cells/well and placed in an incubator at 37° C. overnight to allow cells to attach and acclimatize to culture and the medium. Duplicate plates were prepared with the same cell density for cell number determination at each time point.
Huh-7 incubations were conducted in a final volume of 2.0 mL Huh7 culture medium/well ([…]). Culture medium from overnight incubation of cells was removed and replaced with fresh culture medium, pre-warmed to 37° C. containing [^14C]-Compound 1 or [^14C]-2′-C-methyl guanosine as described above for primary hepatocytes. After 24, 48 and 72 hours, 0.5-1.0 mL of incubation medium was removed and stored at −20° C. until analysis (described below). The remaining medium was discarded and cell monolayers processed and extracted as described above.
Preliminary identification of putative metabolites was conducted by comparing the retention time of observed metabolites in incubation medium and cellular extracts with retention times obtained with chemically synthesized standards using the chromatography conditions described below. Further identification of 2′-C-methyl guanosine nucleotides (mono-, di- and triphosphate) was carried out by incubating cellular extract samples with alkaline phosphatase (10 units for 60 min at 37° C.) and comparing the HPLC retention times of the resulting nucleosides with that of authentic 2′-C-methyl guanosine.
Cellular extracts were prepared by centrifugation at 16,000 RCF using an Eppendorf microcentrifuge (Eppendorf, Model 5415D) for 10 min to remove cellular debris. An aliquot of 5-10 μL of the supernatant was added to 5 mL of EcoLite™ (MP, Irvine, Calif.) liquid scintillation cocktail and radioactivity measured by liquid scintillation counting (LSC) using a Beckman Coulter LS6500 multipurpose liquid scintillation counter (Beckman Instruments, Fullerton, Calif.). The remaining sample was then dried using a Labconco refrigerated centrivap concentrator (Labconco, Kansas City, Mo.). Dry extracts were reconstituted in 120 μL of HPLC-grade water and centrifuged at 16,000 RCF using an Eppendorf microcentrifuge for 10 min. Prior to HPLC analysis (described below), radioactivity of the concentrated extracts was measured by LSC using 5 μL aliquots. Extraction recovery was then determined by comparing total radioactivity in extracts before and after drying. The remaining extract was then analyzed by HPLC with online radioactivity detection using a Flow Scintillation Analyzer Radiomatic™ 515TR. Radioactivity in the separated components was quantified by integrating the peaks using Flo-One™ Software (Perkin Elmer Life Sciences). Samples with poor recovery (<85%) were re-analyzed when possible.
Incubation medium samples were thawed at room temperature, vortexed and centrifuged at 16,000 RCF using an Eppendorf microcentrifuge. An aliquot of 10 μL was added to 5 mL of EcoLite™ (MP, Irvine, Calif.) liquid scintillation cocktail and radioactivity measured by LSC using a Beckman Coulter LS6500 multipurpose liquid scintillation counter (Beckman Instruments, Fullerton, Calif.). Samples (50-100 μL) were then analyzed by HPLC (described below) with online radioactivity detection using a Flow Scintillation Analyzer Radiomatic™ 515TR. Radioactivity in the separated components was quantified by integrating the peaks using Flo-One™ Software (Perkin Elmer Life Sciences). Samples with poor recovery (<85%) were re-analyzed when possible. […]

[1] = 10 μM [^14C]-2′-C-methyl guanosine, 24 h
[2] = 10 μM [^14C]-2′-C-methyl guanosine, 48 h
[3] = 10 μM [^14C]-2′-C-methyl guanosine, 72 h
[4] = 10 μM [^14C]-Compound 1, 24 h, first series
[5] = 10 μM [^14C]-Compound 1, 24 h, second series
[6] = 10 μM [^14C]-Compound 1, 48 h, first series
[7] = 10 μM [^14C]-Compound 1, 48 h, second series
[8] = 10 μM [^14C]-Compound 1, 72 h, first series
[9] = 10 μM [^14C]-Compound 1, 72 h, second series

C[C@@]1(O)[C@H](O)[C@@H](COP(=O)(O)OP(=O)(O)OP(=O)(O)O)O[C@H]1n1cnc2c(=O)[nH]c(N)nc21 [Compound 7, [(2R)-2-methyl-β-D-ribofuranosyl]guanine 5′-triphosphate]
AUC (area under the concentration-time curve) of Compound 7 levels (10 μM [^14C]-2′-C-methyl guanosine, n = 1): 120 pmol * hr/million cells | 2′-C-methyl guanosine nucleotide levels in cellular extracts (10 μM [^14C]-2′-C-methyl guanosine, 0 h, n = 1): 0 pmol/million cells | Major metabolites observed in cellular extracts (% of total radioactivity) [1]: 10.5 % of total radioactivity | 2′-C-methyl guanosine nucleotide levels in cellular extracts (10 μM [^14C]-2′-C-methyl guanosine, 24 h, n = 1): 3.10 pmol/million cells | Major metabolites observed in cellular extracts (% of total radioactivity) [2]: 7.18 % of total radioactivity | 2′-C-methyl guanosine nucleotide levels in cellular extracts (10 μM [^14C]-2′-C-methyl guanosine, 48 h, n = 1): 1.40 pmol/million cells | Major metabolites observed in cellular extracts (% of total radioactivity) [3]: 10.4 % of total radioactivity | 2′-C-methyl guanosine nucleotide levels in cellular extracts (10 μM [^14C]-2′-C-methyl guanosine, 72 h, n = 1): 1.60 pmol/million cells | AUC (area under the concentration-time curve) of Compound 7 levels (10 μM [^14C]-Compound 1, replicate 1 of n = 2): 726 pmol * hr/million cells | AUC (area under the concentration-time curve) of Compound 7 levels (10 μM [^14C]-Compound 1, replicate 2 of n = 2): 1,020 pmol * hr/million cells | 2′-C-methyl guanosine nucleotide levels in cellular extracts (10 μM [^14C]-Compound 1, 0 h, replicate 1 of n = 2): 0 pmol/million cells | 2′-C-methyl guanosine nucleotide levels in cellular extracts (10 μM [^14C]-Compound 1, 0 h, replicate 2 of n = 2): 0 pmol/million cells | Major metabolites observed in cellular extracts (% of total radioactivity) [4]: 59.7 % of total radioactivity | 2′-C-methyl guanosine nucleotide levels in cellular extracts (10 μM [^14C]-Compound 1, 24 h, replicate 1 of n = 2): 8.60 pmol/million cells | 2′-C-methyl guanosine nucleotide levels in cellular extracts (10 μM [^14C]-Compound 1, 24 h, replicate 2 of n = 2): 21.3 pmol/million cells | Major metabolites observed in cellular extracts (% of total radioactivity) [5]: 71.8 % of total radioactivity | Major metabolites observed in cellular extracts (% of total radioactivity) [6]: 71.5 % of total radioactivity | 2′-C-methyl guanosine nucleotide levels in cellular extracts (10 μM [^14C]-Compound 1, 48 h, replicate 1 of n = 2): 16.1 pmol/million cells | 2′-C-methyl guanosine nucleotide levels in cellular extracts (10 μM [^14C]-Compound 1, 48 h, replicate 2 of n = 2): 15.2 pmol/million cells | Major metabolites observed in cellular extracts (% of total radioactivity) [7]: 59.3 % of total radioactivity | Major metabolites observed in cellular extracts (% of total radioactivity) [8]: 72.1 % of total radioactivity | 2′-C-methyl guanosine nucleotide levels in cellular extracts (10 μM [^14C]-Compound 1, 72 h, replicate 1 of n = 2): 11.1 pmol/million cells | 2′-C-methyl guanosine nucleotide levels in cellular extracts (10 μM [^14C]-Compound 1, 72 h, replicate 2 of n = 2): 13.3 pmol/million cells | Major metabolites observed in cellular extracts (% of total radioactivity) [9]: 69.6 % of total radioactivity | Compound 7 AUC0-72h (Huh7 cells (n=1), [^14C]-2′-C-methyl guanosine): 120 pmol*h/million cells | Compound 7 AUC0-72h (Huh7 cells (n=2), [^14C]-Compound 1): 873 pmol*h/million cells | Compound 7 maximum concentration (Huh7 cells, [^14C]-2′-C-methyl guanosine, at 24 hours): 3 pmol/million cells | Maximum Compound 7 levels (Huh7 cells, [^14C]-Compound 1, at 48 hours): 16 pmol/million cells | % of total radioactivity in cellular extracts (Huh7 cells, up to 72 hours after [^14C]-Compound 1 incubation): 83-93% | Levels of Compound 7 in Huh7 cells lower than in human hepatocytes ([^14C]-Compound 1): 88%

C[C@@]1(O)[C@H](O)[C@@H](CO)O[C@H]1n1cnc2c(=O)[nH]c(N)nc21 [2′-C-methyl guanosine, 9-(2-C-methyl-β-D-ribofuranosyl)guanine, reference compound]
Major metabolites observed in cellular extracts (% of total radioactivity) [1]: 89.5 % of total radioactivity | Major metabolites observed in cellular extracts (% of total radioactivity) [2]: 89.3 % of total radioactivity | Major metabolites observed in cellular extracts (% of total radioactivity) [3]: 89.6 % of total radioactivity | Major metabolites observed in cellular extracts (% of total radioactivity) [4]: BLD^a (BLD = below limit of detection (30 DPM)) | Major metabolites observed in cellular extracts (% of total radioactivity) [5]: BLD^a (BLD = below limit of detection (30 DPM)) | Major metabolites observed in cellular extracts (% of total radioactivity) [6]: BLD (BLD = below limit of detection (30 DPM)) | Major metabolites observed in cellular extracts (% of total radioactivity) [7]: 2.65 % of total radioactivity | Major metabolites observed in cellular extracts (% of total radioactivity) [8]: BLD (BLD = below limit of detection (30 DPM)) | Major metabolites observed in cellular extracts (% of total radioactivity) [9]: BLD (BLD = below limit of detection (30 DPM)) | metabolites in the incubation medium following incubation with [^14C]-2′-C-methyl guanosine (Huh7 cells): No metabolites were observed | metabolites observed in medium (% of total radioactivity) (Huh7 cells (n=2), 10 μM [^14C]-Compound 1, 0 h): BLD and BLD^a | metabolites observed in medium (% of total radioactivity) (Huh7 cells (n=2), 10 μM [^14C]-Compound 1, 24 h): 2.2% and 1.10% and 1.2% | metabolites observed in medium (% of total radioactivity) (Huh7 cells (n=2), 10 μM [^14C]-Compound 1, 48 h): 2.7% and 0.5% | metabolites observed in medium (% of total radioactivity) (Huh7 cells (n=2), 10 μM [^14C]-Compound 1, 72 h): 2% and 2.3% and 1.5%

Source: patent publication US20100003217A1, “Compounds and Pharmaceutical Compositions for the Treatment of Viral Infections” (priority 2008, published 2010)
